Assay results: PubChem BioAssay AID206 (DTP/NCI, 2004)
Values joined by “and” are separate entries in the source; they are usually repeats but may differ in a detail not shown here. Identical values can stand only once. Inconclusive results are not listed.

Tested on: nude mice, HT29 intrarenal xenograft, tumor weight T/C
Experiment: NCI In Vivo Anticancer Drug Screen. Data for tumor model HT29;CX-1 Human Adenocarcinoma (MER+) (intrarenal inoculation) in NU/NU Swiss (nude) mice
Conditions: endpoint: mean tumor weight change, higher = larger tumour
Summary of the method: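 Endpoint measured as tumor size or survival; ratio reported is treated group over vehicle controls.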

[1] = dose: 100.0 mg/kg/injection, schedule: Q04DX004 (sc), vehicle: saline with Tween-80
[2] = dose: 200.0 mg/kg/injection, schedule: Q04DX004 (sc), vehicle: Klucel (hydroxypropylcellulose) (HPC)
[3] = dose: 400.0 mg/kg/injection, schedule: Q04DX004 (sc), vehicle: Klucel (hydroxypropylcellulose) (HPC)
[4] = dose: 800.0 mg/kg/injection, schedule: Q04DX004 (sc), vehicle: Klucel (hydroxypropylcellulose) (HPC)
[5] = dose: 18.75 mg/kg/injection, schedule: Q04DX004 (sc), vehicle: saline
[6] = dose: 150.0 mg/kg/injection, schedule: Q04DX004 (sc), vehicle: saline with Tween-80
[7] = dose: 300.0 mg/kg/injection, schedule: Q04DX004 (sc), vehicle: saline with Tween-80
[8] = dose: 12.5 mg/kg/injection, schedule: Q01DX010 (sc), vehicle: Klucel (hydroxypropylcellulose) (HPC)
[9] = dose: 25.0 mg/kg/injection, schedule: Q01DX010 (sc), vehicle: Klucel (hydroxypropylcellulose) (HPC)
[10] = dose: 37.5 mg/kg/injection, schedule: Q04DX004 (sc), vehicle: saline
[11] = dose: 75.0 mg/kg/injection, schedule: Q04DX004 (sc), vehicle: saline
[12] = dose: 150.0 mg/kg/injection, schedule: Q04DX004 (sc), vehicle: saline
[13] = dose: 200.0 mg/kg/injection, schedule: Q04DX004 (sc), vehicle: saline with Tween-80
[14] = dose: 400.0 mg/kg/injection, schedule: Q04DX004 (sc), vehicle: saline with Tween-80
[15] = dose: 300.0 mg/kg/injection, schedule: Q04DX004 (sc), vehicle: saline

SMILES: O=C(O)C1Cc2nc[nH]c2CN1CO (stereo not given)
- T/C [1]: 90 % of control
- T/C (dose: 1600.0 mg/kg/injection, schedule: Q04DX004 (sc), vehicle: saline with Tween-80): 108 % of control

SMILES: S=C(Nc1ccc(Cl)c(Cl)c1)N1c2ccccc2-n2cccc2C1c1cccnc1 (stereo not given)
- T/C [2]: 52 % of control
- T/C [3]: 114 % of control
- T/C [4]: 83 % of control

SMILES: CN(C)CCN1C(=O)c2cccc3cc(N)cc(c23)C1=O
- T/C (dose: 64.0 mg/kg/injection, schedule: Q04DX004 (sc), vehicle: saline with Tween-80): 70 % of control

SMILES: c1ccc([P+](c2ccccc2)(c2ccccc2)c2ccccc2)cc1
- T/C (dose: 5.0 mg/kg/injection, schedule: Q04DX004 (sc), vehicle: saline): 105 % of control
- T/C (dose: 10.0 mg/kg/injection, schedule: Q04DX004 (sc), vehicle: saline): 107 % of control
- T/C (dose: 20.0 mg/kg/injection, schedule: Q04DX004 (sc), vehicle: saline): 68 % of control

SMILES: Cc1ncc(CNC(=O)N(CCCl)N=O)c(N)n1
- T/C (dose: 9.38 mg/kg/injection, schedule: Q04DX004 (sc), vehicle: saline): 55 % of control
- T/C [5]: 39 % of control

SMILES: OCCN1CCN(CC/C=C2/c3ccccc3Sc3ccc(C(F)(F)F)cc32)CC1
- T/C (dose: 5.0 mg/kg/injection, schedule: Q01DX010 (sc), vehicle: saline): 80 % of control
- T/C (dose: 10.0 mg/kg/injection, schedule: Q01DX010 (sc), vehicle: saline): 49 % of control
- T/C (dose: 20.0 mg/kg/injection, schedule: Q01DX010 (sc), vehicle: saline): 67 % of control
- T/C (dose: 40.0 mg/kg/injection, schedule: Q01DX010 (sc), vehicle: saline): 42 % of control

SMILES: CC/C(=C(/CC)c1ccc(O)cc1)c1ccc(O)cc1
- T/C [6]: 70 % of control
- T/C [7]: 69 % of control

SMILES: CC(C)(C)N1CC1CNC(=O)C(=O)NCC1CN1C(C)(C)C (stereo not given)
- T/C (dose: 25.0 mg/kg/injection, schedule: Q04DX004 (sc), vehicle: saline with Tween-80): 109 % of control

SMILES: C[C@]12C=CC(=O)C=C1CC[C@@H]1[C@@H]2[C@@H](O)C[C@@]2(C)[C@H]1CC[C@]2(O)C(=O)CO
- T/C [8]: 79 % of control
- T/C [9]: 112 % of control
- T/C (dose: 50.0 mg/kg/injection, schedule: Q01DX010 (sc), vehicle: Klucel (hydroxypropylcellulose) (HPC)): 66 % of control
- T/C (dose: 100.0 mg/kg/injection, schedule: Q01DX010 (sc), vehicle: Klucel (hydroxypropylcellulose) (HPC)): 83 % of control

SMILES: C(=N/NC1=NCCN1)/c1c2ccccc2c(/C=N\NC2=NCCN2)c2ccccc12
- T/C [5]: 83 % of control
- T/C [10]: 105 % of control
- T/C [11]: 75 % of control

SMILES: CC(C)[NH-].CC(C)[NH-].O.O.[Cl][Pt+2][Cl]
- T/C (dose: 6.25 mg/kg/injection, schedule: Q01DX010 (sc), vehicle: dextrose): 77 % of control and 79 % of control
- T/C (dose: 12.5 mg/kg/injection, schedule: Q01DX010 (sc), vehicle: dextrose): 7 % of control and 23 % of control

SMILES: C=CCNc1nc2c(s1)CCc1cc(OC)c(OC)cc1-2
- T/C [6]: 38 % of control
- T/C [7]: 114 % of control
- T/C (dose: 600.0 mg/kg/injection, schedule: Q04DX004 (sc), vehicle: saline with Tween-80): 113 % of control
- T/C (dose: 1200.0 mg/kg/injection, schedule: Q04DX004 (sc), vehicle: saline with Tween-80): 80 % of control

SMILES: COC1=NCN=C2SC=C(N)N=C12
- T/C [10]: 86 % of control
- T/C [11]: 70 % of control
- T/C [12]: 73 % of control

SMILES: O=C(Nc1cccc2c(OC(=O)C(Cl)Cl)c(N=Nc3ccc(S(=O)(=O)Nc4nccs4)cc3)cc(N=Nc3ccc(S(=O)(=O)Nc4nccs4)cc3)c12)C(Cl)Cl (tested in a mixture with another compound)
- T/C (dose: 50.0 mg/kg/injection, schedule: Q04DX004 (sc), vehicle: saline with Tween-80): 78 % of control
- T/C [1]: 94 % of control
- T/C [13]: 58 % of control
- T/C [14]: 56 % of control

SMILES: Cc1ccccc1CN1C2=NCCN2C(=O)C2=C1CCN(S(=O)(=O)c1ccc(Cl)c(S(N)(=O)=O)c1)C2
- T/C [12]: 86 % of control
- T/C [15]: 168 % of control
- T/C (dose: 600.0 mg/kg/injection, schedule: Q04DX004 (sc), vehicle: saline): 115 % of control
- T/C (dose: 1200.0 mg/kg/injection, schedule: Q04DX004 (sc), vehicle: saline): 75 % of control

SMILES: Cc1ccc(S(=O)(=O)NC(=S)S)cc1
- T/C (dose: 100.0 mg/kg/injection, schedule: Q01DX010 (sc), vehicle: saline with Tween-80): 110 % of control
- T/C (dose: 200.0 mg/kg/injection, schedule: Q01DX010 (sc), vehicle: saline with Tween-80): 191 % of control

SMILES: C1CCC2[N-]CC3CCCCC3[N-]CC3CCCCC3[N-]CC3CCCCC3[N-]CC2C1.[Cu] (stereo not given)
- T/C (dose: 6.25 mg/kg/injection, schedule: Q01DX010 (sc), vehicle: Klucel (hydroxypropylcellulose) (HPC)): 35 % of control
- T/C [8]: 49 % of control
- T/C [9]: 54 % of control

SMILES: O=c1[nH]c(=O)c2nc(-c3cccnc3)cnc2[nH]1
- T/C (dose: 100.0 mg/kg/injection, schedule: Q04DX004 (sc), vehicle: Klucel (hydroxypropylcellulose) (HPC)): 68 % of control
- T/C [2]: 85 % of control
- T/C [3]: 102 % of control
- T/C [4]: 77 % of control

SMILES: CN(C)CC(Cl)CCl (stereo not given)
- T/C [11]: 101 % of control
- T/C [12]: 117 % of control
- T/C [15]: 50 % of control

SMILES: CCCCCc1cc(O)c2c(c1)OC(C)(C)[C@@H]1CCC(C)=C[C@@H]21
- T/C (dose: 150.0 mg/kg/injection, schedule: Q04DX004 (sc), vehicle: other): 117 % of control
- T/C (dose: 300.0 mg/kg/injection, schedule: Q04DX004 (sc), vehicle: other): 76 % of control
- T/C (dose: 600.0 mg/kg/injection, schedule: Q04DX004 (sc), vehicle: other): 68 % of control
- T/C (dose: 1200.0 mg/kg/injection, schedule: Q04DX004 (sc), vehicle: other): 36 % of control

SMILES: COc1cccc2c1C(=O)c1c(O)c3c(c(O)c1C2=O)C[C@@](O)(C(=O)CO)C[C@@H]3OC1CC(N)C(OC)C(C)O1 (stereo not given in full)
- T/C (dose: 3.13 mg/kg/injection, schedule: Q04DX004 (sc), vehicle: saline): 207 % of control

SMILES: O=C1c2c(O)ccc(O)c2C(=O)c2c(NCCNCCO)ccc(NCCNCCO)c21
- T/C (dose: 0.13 mg/kg/injection, schedule: Q01DX010 (sc), vehicle: acid diluted with saline): 89 % of control
- T/C (dose: 0.25 mg/kg/injection, schedule: Q01DX010 (sc), vehicle: acid diluted with saline): 75 % of control
- T/C (dose: 2.5 mg/kg/injection, schedule: Q04DX004 (sc), vehicle: water): 73 % of control
- T/C (dose: 5.0 mg/kg/injection, schedule: Q04DX004 (sc), vehicle: water): 104 % of control
- T/C (dose: 10.0 mg/kg/injection, schedule: Q04DX004 (sc), vehicle: water): 76 % of control

SMILES: COc1cc([C@@H]2c3cc4c(c(O)c3C[C@H]3COC(=O)[C@@H]32)OCO4)cc(OC)c1OC
- T/C (dose: 2.0 mg/kg/injection, schedule: Q01DX010 (sc), vehicle: saline): 46 % of control
- T/C (dose: 4.0 mg/kg/injection, schedule: Q01DX010 (sc), vehicle: saline): 58 % of control
- T/C (dose: 8.0 mg/kg/injection, schedule: Q01DX010 (sc), vehicle: saline): 25 % of control

SMILES: COC(=O)C12OCC34C(CC5C(C)C6=CC(=O)OC6=CC5(C)C3C(O)C1O)OC(=O)C(OC(C)=O)C24 (stereo not given)
- T/C (dose: 1.25 mg/kg/injection, schedule: Q04DX004 (sc), vehicle: saline + alcohol): 115 % of control
- T/C (dose: 5.0 mg/kg/injection, schedule: Q04DX004 (sc), vehicle: saline + alcohol): 171 % of control
- T/C (dose: 10.0 mg/kg/injection, schedule: Q04DX004 (sc), vehicle: saline + alcohol): 165 % of control

SMILES: c1cc(OCC2CO2)ccc1OCC1CO1 (stereo not given)
- T/C [13]: 79 % of control
- T/C [14]: 106 % of control

SMILES: Cc1c(CNc2ccc(C(=O)NC(CC(=O)O)C(=O)O)cc2)ccc2nc(N)nc(N)c12 (stereo not given)
- T/C (dose: 12.5 mg/kg/injection, schedule: Q04DX004 (sc), vehicle: saline with Tween-80): 41 % of control

SMILES: C1CC[N-]CC1.C1CC[N-]CC1.C1CC[N-]CC1.[Cl][Rh]([Cl])[Cl]
- T/C [12]: 36 % of control
- T/C [15]: 25 % of control
